Consider 26 molecules from patent US9187472B2 (AbbVie Inc., priority 2012, dated 2015).

A value given as a limit tells only on which side of the number the result lay.

One experiment addresses NAMPT (Homo sapiens, UniProt P43490). The experiment is described as follows: TR-FRET Binding Assay of NAMPT with PRPP. Conditions: with 200 μM PRPP and 2.5 mM ATP; 2 nM NAMPT, 2 nM probe, 16 hours equilibration. The gist of the method:
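Compounds were mixed with 2 nM His-tagged NAMPT, 2 nM probe, 1 nM terbium anti-His antibody, 200 μM PRPP and 2.5 mM ATP in assay buffer with 2% DMSO, then left 16 hours to permit possible enzymatic processing of compounds before time-resolved FRET was measured.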
In general terms: TR-FRET usually uses a lanthanide donor and a delayed reading to cut background.

Experiment [1] deals with NAMPT (human, recombinant, C-terminally His-tagged) (Homo sapiens, UniProt P43490). Description: Time-Resolved Fluorescence Resonance Energy Transfer (TR-FRET) Binding Assay of NAMPT. The conditions noted are these: without substrates; 6.8 nM NAMPT, 200 nM probe, 3 hours equilibration. The gist of the method: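 Compounds, diluted in half-log steps, are mixed with enzyme (6.8 nM), fluorescent probe (200 nM) and Tb-anti-His antibody (1 nM) in pH 7.5 HEPES buffer containing 10 mM MgCl2 and 1 mM DTT. Plates equilibrate 3 h at room temperature; normalized FRET ratios are fitted by four-parameter logistic regression for IC50.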

In a further experiment the test system is PC3 cells. The experiment is described as follows: NAMPT Cell Proliferation Assay. Conditions: Homo sapiens, PC-3, 120 h, 5 days incubation, cell viability by Cell Titer Glo. It is filed as cell-based. In short, it runs like this:
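Following overnight attachment in RPMI with 10% heat-inactivated FBS, PC3 cells at 500 per well receive compounds spanning 10 μM down to 1×10^−5 μM. Growth is assessed by luminescent viability read after 5 days.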
(In general: Cellular ATP, detected with luciferase, serves as a proxy for viable cell number.)

Chain of NAMPT (P43490 whole entry): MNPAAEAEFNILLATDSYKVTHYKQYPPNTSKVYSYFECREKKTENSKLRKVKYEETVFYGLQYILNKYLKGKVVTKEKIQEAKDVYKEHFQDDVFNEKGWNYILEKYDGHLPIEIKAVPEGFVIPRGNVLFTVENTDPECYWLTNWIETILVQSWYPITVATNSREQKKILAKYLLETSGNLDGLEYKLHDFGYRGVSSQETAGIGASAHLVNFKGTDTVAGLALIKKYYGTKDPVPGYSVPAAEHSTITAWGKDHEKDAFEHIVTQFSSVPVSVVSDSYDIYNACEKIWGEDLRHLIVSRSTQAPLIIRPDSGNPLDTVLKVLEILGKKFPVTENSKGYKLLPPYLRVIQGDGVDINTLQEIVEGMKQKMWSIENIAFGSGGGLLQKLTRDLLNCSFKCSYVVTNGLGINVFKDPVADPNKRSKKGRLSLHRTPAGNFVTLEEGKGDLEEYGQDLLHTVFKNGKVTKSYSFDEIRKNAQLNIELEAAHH
Chain of NAMPT (human, recombinant, C-terminally His-tagged) (P43490 whole entry): as above

Regarding `CC(C)N1CCN(c2ncc(C(=O)NCc3ccn4ccnc4c3)s2)CC1` [Example 356, N-(imidazo[1,2-a]pyridin-7-ylmethyl)-2-[4-(propan-2-yl)piperazin-1-yl]-1,3-thiazole-5-carboxamide], the results for the IC50 (at NAMPT; in experiment [1]; in the experiment with PC3 cells) were 0.169 nM, over 10000 nM and 1020 nM, respectively.

Take `Cc1ccc(C(=O)N2CCC(c3ccc(C(=O)NCc4ccn5ccnc5c4)cc3)C2)cc1` (stereo not drawn) [Example 600, N-(imidazo[1,2-a]pyridin-7-ylmethyl)-4-[1-(4-methylbenzoyl)pyrrolidin-3-yl]benzamide]: the IC50 – broadly, the concentration needed to halve the response being measured – came out at 0.169 nM on NAMPT, 510 nM in experiment [1] and 110 nM with PC3 cells.

On to `COCCOCC(=O)Nc1ccc(NC(=O)Nc2ccc3nccn3c2)cc1` [Example 42, N-{4-[(imidazo[1,2-a]pyridin-6-ylcarbamoyl)amino]phenyl}-2-(2-methoxyethoxy)acetamide], for which the IC50 on NAMPT stood at 0.381 nM; in experiment [1] it was 697 nM; in the experiment on PC3 cells it was 1590 nM.

Take `O=C(NCc1ccn2ccnc2c1)c1ccc(-c2cnn(CC3CCOCC3)c2)o1` [Example 480, N-(imidazo[1,2-a]pyridin-7-ylmethyl)-5-[1-(tetrahydro-2H-pyran-4-ylmethyl)-1H-pyrazol-4-yl]furan-2-carboxamide]: the IC50 at NAMPT worked out at 0.342 nM; in experiment [1], 181 nM; in the experiment on PC3 cells it was 7.43 nM.

For `O=C(CC1CCOC1)Nc1ccc(C(=O)NCc2ccc3nccn3c2)cc1` (stereo not drawn) [Example 78, N-(imidazo[1,2-a]pyridin-6-ylmethyl)-4-[(tetrahydrofuran-3-ylacetyl)amino]benzamide], the IC50 on NAMPT amounted to 2.4 nM; in experiment [1], 56.5 nM; with PC3 cells, 40.7 nM.

For `O=C(NCc1ccn2ccnc2c1)Nc1ccc(C2CCN(C(=O)c3cccc(F)c3)CC2)cc1` [Example 720, 1-{4-[1-(3-fluorobenzoyl)piperidin-4-yl]phenyl}-3-(imidazo[1,2-a]pyridin-7-ylmethyl)urea], the values for the IC50 (on NAMPT; in experiment [1]; in the experiment with PC3 cells) were 0.181 nM, 36.7 nM and 5.82 nM, respectively.

Take `O=C(Nc1ccc(C(=O)NCC2CCCO2)cc1)Nc1ccc2nccn2c1` (stereo not drawn) [Example 16]: the IC50 was 0.396 nM on NAMPT, 409 nM in experiment [1] and 325 nM in the experiment with PC3 cells.

Take `CC/C=C(\C)C(=O)N1CCC(c2ccc(C(=O)NCc3ccn4ccnc4c3)s2)C1` (stereo not drawn) [Example 777, N-(imidazo[1,2-a]pyridin-7-ylmethyl)-5-{1-[(2E)-2-methylpent-2-enoyl]pyrrolidin-3-yl}thiophene-2-carboxamide]: the IC50 was found to be 0.92 nM at NAMPT, 39.4 nM in experiment [1] and 1.26 nM in the experiment on PC3 cells.

As to `CCOCC(=O)Nc1ccc(NC(=O)Nc2ccc3nccn3c2)cc1` [Example 39, 2-ethoxy-N-{4-[(imidazo[1,2-a]pyridin-6-ylcarbamoyl)amino]phenyl}acetamide], the IC50 at NAMPT turned out to be 0.26 nM; in experiment [1], 814 nM; in the experiment with PC3 cells, 7280 nM.

In the case of `CC(C)C(=O)N1CCC(c2ccc(C(=O)NCc3ccn4ccnc4c3)cc2)C1` (stereo not drawn) [Example 367, N-(imidazo[1,2-a]pyridin-7-ylmethyl)-4-[1-(2-methylpropanoyl)pyrrolidin-3-yl]benzamide], the IC50 at NAMPT came to 0.18 nM; in experiment [1], 650 nM; with PC3 cells, 601 nM.

Turning to `O=C(NCc1ccc2nccn2c1)c1cnc(N(C[C@H]2CCCO2)C(=O)C2CCOC2)s1` (stereo partly drawn) [Example 146, N-(imidazo[1,2-a]pyridin-6-ylmethyl)-2-{(tetrahydrofuran-3-ylcarbonyl)[(2R)-tetrahydrofuran-2-ylmethyl]amino}-1,3-thiazole-5-carboxamide], the IC50 at NAMPT was determined as 0.403 nM; in experiment [1], 261 nM; in the experiment with PC3 cells, 7.69 nM.

As to `COc1ccccc1C(=O)N1CCC(c2ccc(C(=O)NCc3ccn4ccnc4c3)cc2)C1` (stereo not drawn) [Example 587, N-(imidazo[1,2-a]pyridin-7-ylmethyl)-4-[1-(2-methoxybenzoyl)pyrrolidin-3-yl]benzamide], the IC50 at NAMPT came out at 0.917 nM; in experiment [1] it was 236 nM; in the experiment with PC3 cells, 7.54 nM.

For `O=C(Nc1ccc(NC(=O)C2CCOCC2)cc1)Nc1ccc2nccn2c1` [Example 46], the IC50 amounted to 0.318 nM on NAMPT, 773 nM in experiment [1] and 6280 nM in the experiment with PC3 cells.

`CC1(Cn2cc(-c3ccc(C(=O)NCc4ccc5nccn5c4)s3)cn2)COC1` [Example 177, N-(imidazo[1,2-a]pyridin-6-ylmethyl)-5-{1-[(3-methyloxetan-3-yl)methyl]-1H-pyrazol-4-yl}thiophene-2-carboxamide]: the concentration for half-maximal inhibition (IC50) was 0.169 nM at NAMPT, 20.1 nM in experiment [1] and 1.69 nM in the experiment with PC3 cells.

With `CC(=O)N1CCC(c2ccc(NC(=O)NCc3ccn4ccnc4c3)cc2)C1` (stereo not drawn) [Example 379, 1-[4-(1-acetylpyrrolidin-3-yl)phenyl]-3-(imidazo[1,2-a]pyridin-7-ylmethyl)urea], the IC50 was 0.29 nM at NAMPT, 279 nM in experiment [1] and 370 nM in the experiment with PC3 cells.

In the case of `CC(C)(C)OC(=O)N1CCC(Cn2cc(-c3ccc(C(=O)NCc4ccn5ccnc5c4)s3)cn2)CC1` [Example 466, tert-butyl 4-[(4-{5-[(imidazo[1,2-a]pyridin-7-ylmethyl)carbamoyl]thiophen-2-yl}-1H-pyrazol-1-yl)methyl]piperidine-1-carboxylate], the IC50 was found to be 0.287 nM on NAMPT, 74.9 nM in experiment [1] and 4.31 nM in the experiment with PC3 cells.

With `CC(C)(C)OC(=O)N1CCC(Oc2ccc(C(=O)NCc3ccc4nccn4c3)cc2)CC1` [Example 114, tert-butyl 4-{4-[(imidazo[1,2-a]pyridin-6-ylmethyl)carbamoyl]phenoxy}piperidine-1-carboxylate], the IC50 is 1.11 nM on NAMPT, 818 nM in experiment [1] and 142 nM in the experiment with PC3 cells.

As for `O=C(NCc1ccn2ccnc2c1)Nc1ccc(C2CCN(C(=O)c3cc(F)ccc3F)CC2)cc1` [Example 725, 1-{4-[1-(2,5-difluorobenzoyl)piperidin-4-yl]phenyl}-3-(imidazo[1,2-a]pyridin-7-ylmethyl)urea], the IC50 on NAMPT was 0.747 nM; in experiment [1], 19.6 nM; in the experiment on PC3 cells, 6 nM.

Turning to `N#Cc1ccccc1C(=O)N1CCC(c2ccc(C(=O)NCc3ccn4ccnc4c3)cc2)CC1` [Example 737, 4-[1-(2-cyanobenzoyl)piperidin-4-yl]-N-(imidazo[1,2-a]pyridin-7-ylmethyl)benzamide], the half-inhibitory concentration (IC50) on NAMPT is 0.612 nM; in experiment [1] it was 70.4 nM; in the experiment with PC3 cells, 4.05 nM.

On to `O=C(NCc1ccn2ccnc2c1)c1ccc(C2CN(C(=O)c3ccoc3)C2)cc1` [Example 662, 4-[1-(furan-3-ylcarbonyl)azetidin-3-yl]-N-(imidazo[1,2-a]pyridin-7-ylmethyl)benzamide], for which the IC50 at NAMPT stood at 0.671 nM; in experiment [1], 318 nM; in the experiment on PC3 cells it was 93.4 nM.

For `CC(C)(C)OC(=O)N1CC(c2ccc(NC(=O)NCc3ccn4ccnc4c3)cc2)C1` [Example 364, tert-butyl 3-(4-{[(imidazo[1,2-a]pyridin-7-ylmethyl)carbamoyl]amino}phenyl)azetidine-1-carboxylate], the IC50 at NAMPT was 0.172 nM; in experiment [1] it was 135 nM; with PC3 cells, 31 nM.

As to `COc1ccccc1C(=O)N1CCC(c2ccc(C(=O)NCc3ccn4ccnc4c3)s2)C1` (stereo not drawn) [Example 760, N-(imidazo[1,2-a]pyridin-7-ylmethyl)-5-[1-(2-methoxybenzoyl)pyrrolidin-3-yl]thiophene-2-carboxamide], the figures for the IC50 (on NAMPT; in experiment [1]; in the experiment on PC3 cells) were 0.71 nM, 28.9 nM and 1.19 nM, respectively.

Turning to `Cc1noc(C)c1C(=O)N1CCC(c2ccc(C(=O)NCc3ccn4ccnc4c3)cc2)CC1` [Example 525, 4-{1-[(3,5-dimethyl-1,2-oxazol-4-yl)carbonyl]piperidin-4-yl}-N-(imidazo[1,2-a]pyridin-7-ylmethyl)benzamide], the values for the IC50 (at NAMPT; in experiment [1]; with PC3 cells) were 0.213 nM, 86.4 nM and 6.77 nM, respectively.

As to `CC(C)(C)OC(=O)N1CC(c2ccc(C(=O)NCc3ccn4ccnc4c3)cc2)C1` [Example 402, tert-butyl 3-{4-[(imidazo[1,2-a]pyridin-7-ylmethyl)carbamoyl]phenyl}azetidine-1-carboxylate], the IC50 on NAMPT turned out to be 0.327 nM; in experiment [1], 54.8 nM; in the experiment on PC3 cells, 6.71 nM.

On to `CC(C)CC(=O)N1CCC(c2ccc(C(=O)NCc3ccn4ccnc4c3)s2)CC1` [Example 263, N-(imidazo[1,2-a]pyridin-7-ylmethyl)-5-[1-(3-methylbutanoyl)piperidin-4-yl]thiophene-2-carboxamide], for which the IC50 on NAMPT came out at 0.247 nM; in experiment [1], 48.6 nM; in the experiment on PC3 cells, 2.43 nM.

Regarding `O=C(NCc1ccn2ccnc2c1)Nc1ccc(OC2CCN(C(=O)c3ccc(F)cc3F)CC2)cc1` [Example 727, 1-(4-{[1-(2,4-difluorobenzoyl)piperidin-4-yl]oxy}phenyl)-3-(imidazo[1,2-a]pyridin-7-ylmethyl)urea], the IC50 worked out at 0.783 nM at NAMPT, 166 nM in experiment [1] and 58.2 nM with PC3 cells.
